Experiment [1] relates to Wnt-inducible genes (TCF/LEF luciferase reporter in DLD-1 TOPFlash cells). The experiment can be described thus: cells. To be noted: Homo sapiens, DLD-1, 24 h, read-out: Wnt-inducible gene expression inhibition IC50, DLD-1 TOPFlash cells, 24 hours; Mean ± SEM.
Experiment [2] relates to EGFP-Axin2 fusion protein. The note with it: read-out: Axin2 Stabilization EC50; HEK293 EGFP-Axin2 cells, 24 hours; Mean ± SEM.

As for `CC(c1ncccn1)N1CCN(c2nc3c(c(=O)[nH]2)CCCN3C)CC1` (racemic) [Example 7, 8-Methyl-2-[4-(1-pyrimidin-2-ylethyl)piperazin-1-yl]-3,5,6,7-tetrahydropyrido[2,3-d]pyrimidin-4-one], in experiment [1], the half-maximal inhibitory concentration (IC50) was 14.6 nM. Moreover, the concentration giving a half-maximal response (EC50) in experiment [2] turned out to be 121 nM.
On the same counts, the results for `CC(c1ncccn1)N1CCN(c2nc3c(c(=O)[nH]2)CCCN3C)CC1` (single isomer, unassigned; isomer 1) [Example 8, 8-Methyl-2-[4-(1-pyrimidin-2-ylethyl)piperazin-1-yl]-3,5,6,7-tetrahydropyrido[2,3-d]pyrimidin-4-one, Isomer 1] are 18.4 nM and 71.5 nM.
As to `CN1CCCc2c1nc(N1CCN(Cc3ncccc3Cl)CC1)[nH]c2=O` [Example 2, 2-[4-[(3-Chloro-2-pyridyl)methyl]piperazin-1-yl]-8-methyl-3,5,6,7-tetrahydropyrido[2,3-d]pyrimidin-4-one], the 50% inhibitory concentration (IC50) in experiment [1] came out at 8.17 nM. Moreover, the EC50 in experiment [2] was found to be 32 nM.
On the same counts, the results for `CN1CCCc2c1nc(N1CCN(Cc3ncccc3Br)CC1)[nH]c2=O` [Example 3, 2-[4-[(3-Bromo-2-pyridyl)methyl]piperazin-1-yl]-8-methyl-3,5,6,7-tetrahydropyrido[2,3-d]pyrimidin-4-one] are 8.66 nM and 18.4 nM.
In the case of `CN1CCCc2c1nc(N1CCN(Cc3ncccc3O)CC1)[nH]c2=O` [Example 4, 2-[4-[(3-Hydroxy-2-pyridyl)methyl]piperazin-1-yl]-8-methyl-3,5,6,7-tetrahydropyrido[2,3-d]pyrimidin-4-one], the IC50 in experiment [1] turned out to be 6.71 nM. Moreover, in experiment [2], the EC50 came to 26.9 nM.
For `CCC(c1ncccn1)N1CCN(c2nc3c(c(=O)[nH]2)CCCN3C)CC1` (stereo not drawn) [Example 10, 8-Methyl-2-[4-(1-pyrimidin-2-ylpropyl)piperazin-1-yl]-3,5,6,7-tetrahydropyrido[2,3-d]pyrimidin-4-one], in that order: 171 nM and 590 nM.
For `COc1ccnc(CN2CCN(c3nc4c(c(=O)[nH]3)CCCN4C)CC2)n1` [Example 13, 2-[4-[(4-methoxypyrimidin-2-yl)methyl]piperazin-1-yl]-8-methyl-3,5,6,7-tetrahydropyrido[2,3-d]pyrimidin-4-one], in that order: 23 nM and 101 nM.
On the same counts, the results for `Cc1ccnc(CN2CCN(c3nc4c(c(=O)[nH]3)CCCN4C)CC2)n1` [Example 14, 8-Methyl-2-[4-[(4-methylpyrimidin-2-yl)methyl]piperazin-1-yl]-3,5,6,7-tetrahydropyrido[2,3-d]pyrimidin-4-one] are 9.35 nM and 52.7 nM.
Consider `CN1CCCc2c1nc(N1CCN(Cc3ncc(C(F)(F)F)cn3)CC1)[nH]c2=O` [Example 15, 8-Methyl-2-[4-[[5-(trifluoromethyl)pyrimidin-2-yl]methyl)piperazin-1-yl]-3,5,6,7-tetrahydropyrido[2,3-d]pyrimidin-4-one], for which the 50% inhibitory concentration (IC50) in experiment [1] is 15.4 nM. The EC50 in experiment [2] is 115 nM.
On the same counts, the results for `CN1CCCc2c1nc(N1CCN(Cc3nccc(C(F)(F)F)n3)CC1)[nH]c2=O` [Example 16, 8-Methyl-2-[4-[[4-(trifluoromethyl)pyrimidin-2-yl]methyl]piperazin-1-yl]-3,5,6,7-tetrahydropyrido[2,3-d]pyrimidin-4-one] are 102 nM and 509 nM.
For `Cc1cnc(CN2CCN(c3nc4c(c(=O)[nH]3)CCCN4C)CC2)nc1` [Example 17, 8-Methyl-2-[4-[(5-methylpyrimidin-2-yl)methyl]piperazin-1-yl]-3,5,6,7-tetrahydropyrido[2,3-d]pyrimidin-4-one], in that order: 37.3 nM and 198 nM.
Regarding `CN1CCCc2c1nc(N1CCN(Cc3ncc(Cl)cn3)CC1)[nH]c2=O` [Example 18, 2-[4-[(5-Chloropyrimidin-2-yl)methyl]piperazin-1-yl]-8-methyl-3,5,6,7-tetrahydropyrido[2,3-d]pyrimidin-4-one], in experiment [1], the IC50 worked out at 156 nM. For the same molecule, the EC50 in experiment [2] is 901 nM.
On the same counts, the results for `CN1CCCc2c1nc(N1CCN(Cc3ccccn3)CC1)[nH]c2=O` [Example 19, 8-Methyl-2-[4-(2-pyridylmethyl)piperazin-1-yl]-3,5,6,7-tetrahydropyrido[2,3-d]pyrimidin-4-one] are 12.6 nM and 62.6 nM.
`CN1CCCc2c1nc(N1CCN(Cc3ncccc3F)CC1)[nH]c2=O` [Example 20, 2-[4-[(3-Fluoro-2-pyridyl)methyl]piperazin-1-yl]-8-methyl-3,5,6,7-tetrahydropyrido[2,3-d]pyrimidin-4-one]: in experiment [1], the IC50 was 22.2 nM. Also, the half-maximal effective concentration (EC50) in experiment [2] is 77.9 nM.
Regarding `CN1CCCc2c1nc(N1CCN(Cc3ccccc3Cl)CC1)[nH]c2=O` [Example 38, 2-[4-[(2-Chlorophenyl)methyl]piperazin-1-yl]-8-methyl-3,5,6,7-tetrahydropyrido[2,3-d]pyrimidin-4-one], in experiment [1], the IC50 was 22.2 nM. Besides, in experiment [2], the 50% effective concentration (EC50) amounted to 34.8 nM.
For `CN1CCCc2c1nc(N1CCN(Cc3ncc(F)cn3)CC1)[nH]c2=O` [Example 39, 2-[4-[(5-Fluoropyrimidin-2-yl)methyl]piperazin-1-yl]-8-methyl-3,5,6,7-tetrahydropyrido [2,3-d]pyrimidin-4-one], in that order: 20.6 nM and 181 nM.
Take `CN1CCCc2c1nc(N1CCN(Cc3ncccc3C#N)CC1)[nH]c2=O` [Example 40, 2-[[4-(8-Methyl-4-oxo-3,5,6,7-tetrahydropyrido[2,3-d]pyrimidin-2-yl)piperazin-1-yl]methyl]pyridine-3-carbonitrile]: in experiment [1], the IC50 is 6.95 nM. Moreover, in experiment [2], the EC50 is 39.8 nM.
On to `CN1CCCc2c1nc(N1CCN(Cc3nccc(Cl)n3)CC1)[nH]c2=O` [Example 41, 2-[4-[(4-Chloropyrimidin-2-yl)methyl]piperazin-1-yl]-8-methyl-3,5,6,7-tetrahydropyrido[2,3-d]pyrimidin-4-one], for which the EC50 in experiment [2] turned out to be 61.6 nM.
On to `CN1CCCc2c1nc(N1CCN(Cc3cnccn3)CC1)[nH]c2=O` [Example 42, 8-Methyl-2-[4-(pyrazin-2-ylmethyl)piperazin-1-yl]-3,5,6,7-tetrahydropyrido[2,3-d]pyrimidin-4-one], for which the half-maximal inhibitory concentration (IC50) in experiment [1] worked out at 22 nM. The EC50 in experiment [2] worked out at 141 nM.
Regarding `CN1CCCc2c1nc(N1CCN(Cc3nccnc3Cl)CC1)[nH]c2=O` [Example 43, 2-[4-[(3-Chloropyrazin-2-yl)methyl]piperazin-l-yl]-8-methyl-3,5,6,7-tetrahydropyrido[2,3-d]pyrimidin-4-one], the concentration giving a half-maximal response (EC50) in experiment [2] is 74.5 nM.
Regarding `Cc1nccnc1CN1CCN(c2nc3c(c(=O)[nH]2)CCCN3C)CC1` [Example 44, 8-Methyl-2-[4-[(3-methyl-pyrazin-2-yl)methyl]piperazin-1-yl]-3,5,6,7-tetrahydropyrido[2,3-d]pyrimidin-4-one], the IC50 in experiment [1] came out at 11.2 nM. For the same molecule, the concentration giving a half-maximal response (EC50) in experiment [2] stood at 118 nM.
For `CN1CCCc2c1nc(N1CCN(Cc3ncc(F)cc3F)CC1)[nH]c2=O` [Example 45, 2-[4-[(3,5-Difluoro-2-pyridyl)methyl]piperazin-1-yl]-8-methyl-3,5,6,7-tetrahydropyrido[2,3-d]pyrimidin-4-one], in that order: 18.8 nM and 144 nM.

The term IC50 denotes the concentration that gives 50% inhibition. By EC50 is commonly meant the concentration that produces a half-maximal response.

Values taken from patent US9624218B2 (Eli Lilly and Company, priority 2014, dated 2017).
